This note sets out measurements from patent US11427596B2, “Metal-free solvent-free synthesis of fused-pyrido heterocycles and biomedical applications” (Indian Institute of Technology Indore, priority 2019, dated 2022).

Data set [1] deals with HeLa. Put plainly: Crystal violet cytotoxicity assay, HeLa. It is filed as cell-based. The settings on record: Homo sapiens, 48 h incubation, triplicate. On the procedure: (§1) FIG. 16 illustrates dose vs response curves of carbolines 18ac, 18bc, 18da and 18fa in HeLa, MCF-7, HEK293, A431 and A549 cell lines for 48 h incubation. IC50 values were determined by standard crystal violet assay in triplicate, according to the embodiments as disclosed herein. In vitro studies: The cytotoxicity of novel carboline derivatives 18ac, 18bc, 18da and 18fa were tested through standard crystal violet assay on human malignant cell lines such as HeLa, MCF-7, HEK293, A431 and A549. Cells were plated in a 96 well plate (1800 cells per well) and incubated for 48 h at 37° C. under 5% CO2. At 50% confluency, cells were incubated with a series of concentrations (0.1 μM, 0.25 μM, 0.5 μM, 1 μM, 2.5 μM, 5 μM, 10 μM, 25 μM, 50 μM and 100 μM) of the carbolines 18ac, 18bc, 18da and 18fa, respectively, for 48 h.
(§2) Procedure for cytotoxicity assay of carbolines in cancer cell lines: For this purpose, carbolines 18ac, 18bc, 18da and 18fa were subjected to a standard cell viability study (Crystal Violet assay) for examining anticancer activity against various human cancer cell lines such as HeLa, MCF-7, HEK293, A431 and A549. Crystal Violet is a triarylmethane dye which stains adhered cells by binding to the […]. The amount of Crystal Violet stain in the assay is directly proportional to the live cell biomass adhered on the plate after repeated washing. The above human cancer cell lines were plated in a 96-well tissue culture plate (1800 cells/well,) and incubated for 48 h in RPMI 1640 medium (volume≥100 μL/well), supplemented with 10% heat inactivated fetal bovine serum (HIFBS) and 1% Penicillin-Streptomycin antibiotic at 37° C., 5% CO2. Once the monolayer achieved 50% confluency/well, spent medium was aspirated and replaced with fresh medium≥100 μL/well, supplemented with increasing concentrations of carbolines 18ac, 18bc, 18da and 18fa (0.1 μM, 0.25 μM, 0.5 μM, 1 μM, 2.5 μM, 5 μM, 10 μM, 25 μM, 50 μM and 100 μM), respectively, and incubated for 48 h, at 37° C., 5% CO2. For positive control, 40% DMSO in culture medium was added to three wells and incubated under identical conditions. […] Finally, optical density of each well was measured at 570 nm (OD570) using Synergy H1 multimode plate reader (BioTek Instruments, Inc., Winooski, Vt., USA). The average background OD570 of empty wells was measured and subtracted from OD570/well on the plate. The percentage of treated, viable cells (attached) was determined and a dose vs response curve was plotted as semi-log[conc] vs percentage of normalized cell viability using GraphPad Prism v. […] The half maximal inhibitory concentration (IC50) was calculated and shown in Table 3 for carbolines 18ac, 18bc, 18da and 18fa against various human cancer cell lines (FIG. 16).

In data set [2] the test system is A549. Put plainly: Crystal violet cytotoxicity assay, A549. It is filed as cell-based. Conditions: Homo sapiens, 48 h incubation, triplicate. As to the method: as §1, §2
In data set [3] the test system is A431. In words: Crystal violet cytotoxicity assay, A431. The data set is classed as cell-based. The settings on record: Homo sapiens, A-431, 48 h incubation, triplicate. As to the method: as §1, §2
For data set [4], the system named is HEK293. In words: Crystal violet cytotoxicity assay, HEK293. It is filed as cell-based. Conditions: Homo sapiens, 48 h incubation, triplicate. On the procedure: as §1, §2
In data set [5] the test system is MCF-7. Put plainly: Crystal violet cytotoxicity assay, MCF-7. The data set is classed as cell-based. The settings on record: Homo sapiens, MCF7, 48 h incubation, triplicate. As to the method:
as §1, §2

The subject of data set [6] is Mycobacterium smegmatis. In words: In vitro Mycobacterium strains killing assay, M. smegmatis. It is filed as cell-based.
A short description of data set [7]: Stability in polar solvent (HRMS footnote). It is filed as physicochemical. Conditions: HRMS recording.
Data set [8] has as its system HeLa cells. In words: Live-cell confocal imaging of cell uptake. The data set is classed as cell-based, human. Conditions: 3 h incubation, confocal microscopy. As to the method:
FIG. b 17 illustrates confocal microscopic studies (λex=405 nm; collection range=420-470 nm) for uptake of 18ac in HeLa cells, according to the embodiments as disclosed herein. • a) Confocal fluorescent image of HeLa cells after 3 h incubation with 10 μM concentration of 18ac (20× magnification, 2× zoom); • b) DIC image of HeLa cells • c) Overlay of (a) and (b) • d) Confocal image of HeLa cells after 3 h incubation with 100 nM concentration of 18ac (20× magnification, 2× zoom) • e) DIC image of HeLa cells • f) Overlay of (d) and (e).
To further evaluate cell uptake of the novel carbolines, live-cell imaging experiment was performed. HeLa cells were plated in a 4-well confocal dish (cell count=10^4 cells per well) and incubated for 48 h at 37° C. under 5% CO2. After 3 h of incubation with 18ac (10 nM, 100 nM, 1 μM, 10 μM, and 100 μM), cellular uptake and distribution were monitored by using confocal microscopy (λex=405 nm; collection range=420-470 nm).

SMILES strings stand for the structures. Where “and” joins values, the source holds several entries; their conditions need not be identical. Equal entries are not always repeated.

As a reminder, the melting point is the temperature, or range, at which the solid turns liquid. Consider `COC(=O)c1cc2c(c(-c3cc4ccccc4n3C)n1)c1ccccc1n2C`, for which the melting point lay within 210 to 212 °C.
On the same count and under the same terms, the result for `CCOC(=O)c1cc2c(c(-c3cc4ccccc4n3C)n1)c1ccccc1n2C` reads 175 to 177 °C.
In the case of `CCOC(=O)c1cc2oc3ccccc3c2c(-c2cc3ccccc3o2)n1`, the melting point was 141 to 143 °C.
In turn, `COC(=O)c1cc2c(ccn2S(=O)(=O)c2ccc(C)cc2)c(-c2cccn2S(=O)(=O)c2ccc(C)cc2)n1` displayed a melting point of 120 to 122 °C.
In general, IC50 refers to the midpoint of a concentration-inhibition curve. `COC(=O)C1=Cc2c(c3ccccc3n2S(=O)(=O)c2ccc(C)cc2)C(c2cc3ccccc3n2S(=O)(=O)c2ccc(C)cc2)N1` (stereo not shown) [18fa, Methyl 5-tosyl-1-(1-tosyl-1H-indol-2-yl)-2,5-dihydro-1H-pyrido[4,3-b]indole-3-carboxylate]: the melting point was 205 to 207 °C. Moreover, the IC50 in data set [1] turned out to be 1.07 µM. For the same compound, in data set [2], the IC50 was 4.98 µM. For the same compound, the IC50 in [3] came out at 3.58 µM. Besides, the IC50 in data set [4] came out at 4.98 µM. In addition, the IC50 in data set [5] is 3.71 µM.
As for `Cc1ccc(-c2nc(COCc3cn(CCN4C(=O)C(=O)c5ccccc54)nn3)cc3oc(C)cc23)o1` [compound 26, 1-(2-(4-(((2-Methyl-4-(5-methylfuran-2-yl)furo[3,2-c]pyridin-6-yl)methoxy)methyl)-1H-1,2,3-triazol-1-yl)ethyl)indoline-2,3-dione], the “concentration range in which active (antituberculosis activity)” value in data set [6] was 70 to 100 µM and 50 to 100 µM.
For the compound `COC(=O)c1cc2c(ccn2Cc2ccccc2)c(-c2cccn2Cc2ccccc2)n1`, the melting point lay within 134 to 136 °C.
For `NC(=O)c1cc2c(ccn2Cc2ccccc2)c(-c2cccn2Cc2ccccc2)n1` [compound 11, 1-Benzyl-4-(1-benzyl-1H-pyrrol-2-yl)-1H-pyrrolo[3,2-c]pyridine-6-carboxamide], the “stability in polar solvent” value in data set [7] is reported as “unstable in polar solvent”.
`COC(=O)c1cc2occc2c(-c2ccco2)n1`: the melting point fell in the range of 95 to 97 °C.
Same read-out and setting: next, `COC(=O)c1cc2c(c(-c3cc4ccccc4n3Cc3ccccc3)n1)c1ccccc1n2Cc1ccccc1`: 168 to 170 °C.
In turn, `CC(C)(C)OC(=O)c1cc2c(c(-c3cc4ccccc4n3Cc3ccccc3)n1)c1ccccc1n2Cc1ccccc1` [18bc, Tert-butyl 5-benzyl-1-(1-benzyl-1H-indol-2-yl)-5H-pyrido[4,3-b]indole-3-carboxylate] showed a melting point of 148 to 150 °C. The concentration for half-maximal inhibition (IC50) in [1] was 8.15 µM. In data set [2], the half-inhibitory concentration (IC50) amounted to 5.47 µM. Also, the 50% inhibitory concentration (IC50) in data set [3] came to 9.18 µM. Moreover, the IC50 in data set [4] was 7.14 µM. Also, the 50% inhibitory concentration (IC50) in data set [5] stood at 7.07 µM.
As to `CC(C)(C)OC(=O)c1cc2oc3ccccc3c2c(-c2cc3ccccc3o2)n1`, the melting point fell in the range of 100 to 102 °C.
As for `COC(=O)c1cc2oc3ccccc3c2c(-c2cc3ccccc3o2)n1`, the melting point lay within 163 to 165 °C.
In turn, `COC(=O)c1cc2c(ccn2S(=O)(=O)c2ccccc2)c(-c2cccn2S(=O)(=O)c2ccccc2)n1` registered a melting point of 104 to 106 °C.
`CC(C)(C)OC(=O)c1cc2occc2c(-c2ccco2)n1`: the melting point lay in the range of 78 to 80 °C.
On to `COC(=O)c1cc2c(c(-c3cc4ccccc4n3Cc3ccc(OC)cc3)n1)c1ccccc1n2Cc1ccc(OC)cc1` [18da, Methyl 5-(4-methoxybenzyl)-1-(1-(4-methoxybenzyl)-1H-indol-2-yl)-5H-pyrido[4,3-b]indole-3-carboxylate], for which the melting point was in the range of 106 to 108 °C. Moreover, in data set [1], the concentration for half-maximal inhibition (IC50) turned out to be 1.3 µM. Also, the IC50 in [2] was 5.17 µM. The IC50 in data set [3] was found to be 4.47 µM. In addition, the IC50 in data set [4] is 6.73 µM. Further, the IC50 in data set [5] was found to be 2.99 µM.
`COC(=O)c1cc2c(c(-c3cc4cc(OC)ccc4n3C)n1)c1cc(OC)ccc1n2C` registered a melting point of 160 to 162 °C.
In turn, `Cn1c(-c2nc(C(=O)OC(C)(C)C)cc3c2c2ccccc2n3C)cc2ccccc21` [18ac, Tert-butyl 5-methyl-1-(1-methyl-1H-indol-2-yl)-5H-pyrido[4,3-b]indole-3-carboxylate] showed a melting point of 200 to 202 °C. Further, the cellular uptake result in data set [8] (100 nM concentration) is listed as “nominal uptake”. The cellular uptake entry in [8] (10 μM concentration) is recorded as “Decent cytosolic uptake”. In addition, the IC50 in [1] is 4.89 µM. The IC50 in data set [2] was found to be 4.62 µM. Further, the IC50 in data set [3] is 4.89 µM. For the same compound, the 50% inhibitory concentration (IC50) in data set [4] came out at 2.29 µM. Also, the IC50 in data set [5] worked out at 5.59 µM.
